Test results from patent US20260176283A1, “IONIZABLE LIPIDS WITH LINEAR HEAD GROUPS” (Beam Therapeutics Inc., priority 2023, published 2026).

How the values were obtained:
[1] = LNP preparation characterization (encapsulation efficiency, DLS size and polydispersity), barcoded screen LNPs; assay type: physicochemical; details: LNP 47.5% ionizable lipid: 40% cholesterol: 2.5% PEG-2000 DMG: 10% DPSC, N/P 4.5-6; for AVG PDI / AVG Z Dia (nm): DLS
Experimental: Lipid nanoparticle components were dissolved in 100% ethanol at specified lipid component molar ratios. Nucleic acid (NA) cargo was dissolved in 10 mM citrate, 100 mM NaCl, pH 4.0, resulting in a concentration of NA cargo of approximately 0.22 mg/mL. In some embodiments, NA cargos included both a functional NA and a reporter barcode mixed at mass ratios of 1:10 to 10:1 functional NA to barcode. As described herein, a NA can be a siRNA, an anti-sense, an expressing DNA, or mRNA.
LNP preparations were prepared with 47.5% Ionizable Lipid (e.g., a compound provided herein): 40% cholesterol: 2.5% PEG-2000 DMG: 10% DPSC and an N/P ratio range of 4.5-6. LNP preparations were formed by microfluidic mixing of the lipid and NA solutions using Precision Nanosystems NanoAssemblr Spark or Benchtop series Instruments, according to the manufacturer's protocol.
A ratio of aqueous to organic solvent of approximately 2:1 or 3:1 was maintained during mixing using differential flow rates. After mixing, LNP preparations were collected, diluted in phosphate buffer saline (PBS) or Tris-buffered saline (TBS) (approximately 1:1 v/v). Further buffer exchange was conducted using dialysis in PBS or TBS at 4° C. for 4 to 24 hours against a 20 kDa filter. After this initial dialysis, each individual LNP preparation may be characterized via dynamic light scattering (DLS) to measure the size (e.g., diameter) and polydispersity. LNP preparations falling within specific diameter and polydispersity ranges were pooled, and further dialyzed against PBS or TBS at 4° C. for 1 to 4 hours against a 100 kDa dialysis cassette. After the second dialysis, LNP preparations were sterile filtered using 0.22 μm filter and stored at 4° C. for further use.

[2] = LNP characterization of base editor LNP preparations (DLS diameter, PDI, encapsulation efficiency); assay type: physicochemical
Experimental: (§1) Lipid nanoparticle components are dissolved in 100% ethanol at specified lipid component molar ratios. mRNA encoding an adenine base editor and a chemically-modified sgRNA is dissolved at a mass ratio of 1:1 in 10 mM citrate, 100 mM NaCl, pH 4.0, resulting in a concentration of NA cargo of approximately 0.22 mg/mL. LNP preparations are formulated with molar ratios of either 50% Ionizable Lipid: 38.5% Cholesterol: 1.5% PEG2000-DMG: 10% DSPC or 47.5% Ionizable Lipid: 40% Cholesterol: 2.5% PEG2000-DMG: 10% DSPC both at a total lipid to NA molar ratio of 6.
(§2) LNP preparations are formed by microfluidic mixing of the lipid and NA solutions using a Precision Nanosystems NanoAssemblr Ignite Instrument, according to the manufacturer's protocol. A 3:1 ratio of aqueous to organic solvent is maintained during mixing using differential flow rates. After mixing, LNP preparations are collected, diluted in PBS (approximately 2:1 v/v), and further buffer exchange is conducted using dialysis in PBS at 4° C. for 8 to 24 hours against a 20 kDa filter. After this initial dialysis, each individual LNP preparation is characterized via dynamic light scattering (DLS) to measure size and polydispersity. pKa of a subpopulation of LNP preparations is measured via TNS assay. After dialysis, LNP preparations are sterile filtered using 0.22 micron sterile filter and stored at 4° C. for further use. In some embodiments, LNP preparations may be concentrated using 100 kDa Amicon filters per manufacturer's protocol.
DLS—LNP preparation hydrodynamic diameter and polydispersity index (PDI) is measured using high throughput dynamic light scattering (DLS) (DynaPro plate reader II, Wyatt). LNP preparations are diluted 1×PBS to an appropriate concentration and analyzed.
Concentration of NA is determined by Qubit microRNA kit (for siRNA) or HS RNA kit (for mRNA) per manufacturer's instructions. Encapsulation efficiency is determined by measuring unlysed and lysed LNPs.

ALAS1 target site = experiment: In vivo base editing with ABE mRNA and sgRNA targeting ALAS1; design: species or system Balb/c mice; details: for Liver Editing A->G (%): 4 days after dosing
Experimental: as §1, §2
Male Balb/C mice aged approximately 8-12 weeks are used in the experiments described herein. Each mouse is temporarily restrained, and LNP preparations are administered IV via tail vein injection. Age-matched mice are also used to administer vehicle (1×PBS) via tail vein injection as a control. Four to six days post-dose, tissues including liver, spleen, heart and muscle are collected (only liver and muscle (quardracept) are reported). Genomic DNA is isolated and fragmented and adapter-ligated using the Nextera DNA Flex Library Prep Kit (Illumina) using the 96-well plate Nextera indexing primers (Illumina), according to the manufacturer's instructions. Library size and concentration is confirmed by Fragment Analyzer (Agilent) and sent to Novogene for whole genome sequencing using an Illumina HiSeq.
For base editing, mRNA encoding an adenine base editor (ABE) and a guide RNA (sgRNA) targeting ALAS1 at 1:1 (mass ratio) are coencapsulated in LNP preparations as described herein. LNP preparations are administrated into Balb/c mice through tail vein injections at concentrations ranging from 0.05 to 3.0 mg/kg total RNA. At 4 days after dosing, mice are euthanized and liver, spleen and bone barrow are harvested. Base editing is determined by performing targeted deep sequencing analysis at the ALAS1 target site using extracted genomic DNA.

[3] = Table D LNPs, formulation ratio 50:38.5:1.5:10, ABE mRNA/ALAS1 sgRNA
[4] = dose 3 MPK IV, formulation ratio 50:38.5:1.5:10, liver
[5] = dose 3 MPK IV, formulation ratio 50:38.5:1.5:10, quadricep muscle
[6] = Table C LNPs, formulation ratio 47.5:40:2.5:10, ABE mRNA/ALAS1 sgRNA

SMILES | AVG EE(%) [1] | AVG PDI [1] | AVG Z Dia (nm) [1] | Diameter (nm) [2, 3] | EE (%) [2, 3] | PDI (%) [2, 3] | Diameter (nm) [2, 6] | EE (%) [2, 6] | PDI (%) [2, 6] | Liver Editing A->G (%) (ALAS1 target site; dose 1.5 MPK IV, formulation ratio 50:38.5:1.5:10, liver) | Quadrecept Editing A->G (%) (ALAS1 target site; dose 1.5 MPK IV, formulation ratio 50:38.5:1.5:10, quadricep muscle) | Liver Editing A->G (%) (ALAS1 target site; [4]) | Quadrecept Editing A->G (%) (ALAS1 target site; [5]) | Liver Editing A->G (%) (ALAS1 target site; dose 0.1 MPK IV, formulation ratio 47.5:40:2.5:10, liver) | Quadrecept Editing A->G (%) (ALAS1 target site; dose 0.1 MPK IV, formulation ratio 47.5:40:2.5:10, quadricep muscle) | Liver Editing A->G (%) (ALAS1 target site; dose 0.05 MPK IV, formulation ratio 47.5:40:2.5:10, liver)
C=CCCCCC(CCCCC=C)OC(=O)CCCCCC(=O)OCC(COC(=O)CCCCCC(=O)OC(CCCCC=C)CCCCC=C)COC(=O)CCCN1CCCC1 [Compound (2)] | 83.5% | 0.06 | 108.73 nm | 98.8 nm | 98.59% | 9.5% |  |  |  | 79.48% | 3.19% |  |  |  |  | 
C=CCCCCCCC(CCCCCCC=C)OC(=O)CCCCC(=O)OCC(COC(=O)CCCCC(=O)OC(CCCCCCC=C)CCCCCCC=C)COC(=O)CCCN1CCCC1 [Compound (3), 1-Heptadeca-1,16-dien-9-yl6-[2-({[6-(hentadeca-1,16-dien-9-yloxy)-6-oxohexanoyl]oxy}methyl)-3-{[4-(pyrrolidin-1-yl)butanoyl]oxy}propyl]hexanedioate] | 85.3% | 0.13 | 77.22 nm | 69.8 nm | 99.3% | 11.9% |  |  |  |  |  | 69.43% | 3.8% |  |  | 
C=CCCCCC(CCCCC=C)OC(=O)CCCCCCC(=O)OCC(COC(=O)CCCCCCC(=O)OC(CCCCC=C)CCCCC=C)COC(=O)CCCN1CCCC1 [Compound (6), 1-[2-({[8-Oxo-8-(trideca-1,12-dien-7-yloxy)octanoyl]oxy}methyl)-3-{[4-(pyrrolidin-1-yl)butanoyl]oxy}propyl]-8-trideca-1,12-dien-7-yl octanedioate] | 78.0% | 0.10 | 97.43 nm | 73.7 nm | 98.07% | 15.3% |  |  |  |  |  | 78.46% | 1.17% |  |  | 
C=CCCCC(CCCC=C)OC(=O)CCCCCCC(=O)OCC(COC(=O)CCCCCCC(=O)OC(CCCC=C)CCCC=C)COC(=O)CCCN1CCCC1 [Compound (7), 1-[2-({[8-Oxo-8-(undeca-1,10-dien-6-yloxy)octanoyl]oxy}methyl)-3-{[4-(pyrrolidin-1-yl)butanoyl]oxy}propyl] 8-undeca-1,10-dien-6-yl octanedioate] | 74.3% |  | 85.54 nm | 121.2 nm | 91.02% | 11.8% |  |  |  |  |  |  | 0.87% |  |  | 

The next lines start with results.

AVG EE(%) [1] | AVG PDI [1] | AVG Z Dia (nm) [1] | Diameter (nm) [2, 3] | EE (%) [2, 3] | PDI (%) [2, 3] | Diameter (nm) [2, 6] | EE (%) [2, 6] | PDI (%) [2, 6] | SMILES | Liver Editing A->G (%) (ALAS1 target site; dose 1.5 MPK IV, formulation ratio 50:38.5:1.5:10, liver) | Quadrecept Editing A->G (%) (ALAS1 target site; dose 1.5 MPK IV, formulation ratio 50:38.5:1.5:10, quadricep muscle) | Liver Editing A->G (%) (ALAS1 target site; [4]) | Quadrecept Editing A->G (%) (ALAS1 target site; [5]) | Liver Editing A->G (%) (ALAS1 target site; dose 0.1 MPK IV, formulation ratio 47.5:40:2.5:10, liver) | Quadrecept Editing A->G (%) (ALAS1 target site; dose 0.1 MPK IV, formulation ratio 47.5:40:2.5:10, quadricep muscle) | Liver Editing A->G (%) (ALAS1 target site; dose 0.05 MPK IV, formulation ratio 47.5:40:2.5:10, liver)
63.6% | 0.12 | 105.44 nm | 82.7 nm | 72.57% | 17.4% |  |  |  | CC/C=C\CCCC(CCC/C=C\CC)OC(=O)CCCCC(=O)OCC(COC(=O)CCCCC(=O)OC(CCC/C=C\CC)CCC/C=C\CC)COC(=O)CCCN1CCCC1 [Compound (12), 1-{2-[({6-Oxo-6-[(3Z,12Z)-pentadeca-3,12-dien-8-yloxy]hexanoyl}oxy)methyl]-3-{[4-(pyrrolidin-1-yl)butanoyl]oxy}propyl}6-(3Z,12Z)-pentadeca-3,12-dien-8-yl hexanedioate] |  |  |  | 0.22% |  |  | 
 |  |  | 96.6 nm | 94.81% | 11.6% |  |  |  | C=CCCCC(CCCC=C)COC(=O)CCCCCCC(=O)OCC(COC(=O)CCCCCCC(=O)OCC(CCCC=C)CCCC=C)COC(=O)CCCN1CCCC1 [Compound (15), 1-(2-1[(8-oxo-8-{[2-(pent-4-en-1-yl)hept-6-en-1-yl]oxy}octanoyl)oxy]methyl}-3-{[4-(pyrrolidin-1-yl)butanoyl]oxy}propyl) 8-[2-(pent-4-en-1-yl)hept-6-en-1-yl] octanedioate] |  |  |  | 4.05% |  |  | 
64.3% | 0.09 | 129.85 nm | 96.8 nm | 96.3% | 13.5% |  |  |  | O=C(CCCCCCC(=O)OC(CCCCCC(F)(F)F)CCCCCC(F)(F)F)OCC(COC(=O)CCCCCCC(=O)OC(CCCCCC(F)(F)F)CCCCCC(F)(F)F)COC(=O)CCCN1CCCC1 [Compound (16), 1-(1,1,1,13,13,13-Hexafluorotridecan-7-yl)-8-{2-[({8-[(1,1,1,13,13,13-hexafluorotridecan-7-yl)oxy]-8-oxooctanoyl}oxy)methyl]-3-{[4-(pyrrolidin-1-yl)butanoyl]oxy}propyl} octanedioate] |  |  | 72.41% | 0.6% |  |  | 
98.2% | 0.07 | 138.63 nm | 149.3 nm | 88.58% | 13.1% | 106 nm | 93.9% | 16.9% | C=CCCCC(CCCC=C)COC(=O)CCCCCC(=O)OCC(COC(=O)CCCCCC(=O)OCC(CCCC=C)CCCC=C)COC(=O)CCCN1CCCC1 [Compound (18), 1-(2-{[(7-Oxo-7-{[2-(pent-4-en-1-yl)hept-6-en-1-yl]oxy}heptanoyl)oxy]methyl}-3-{[4-(pyrrolidin-1-yl)butanoyl]oxy}propyl) 7-[2-(pent-4-en-1-yl)hept-6-en-1-yl] heptanedioate] |  |  |  | 2.5% | 0.99% | 0.29% | 
 |  |  |  |  |  | 71.15 nm | 98.71% | 11.8% | CC/C=C\CCCC(CCC/C=C\CC)OC(=O)CCCCCC(=O)OCC(COC(=O)CCCCCC(=O)OC(CCC/C=C\CC)CCC/C=C\CC)COC(=O)NCCN1CCCC1 [Compound (28), 1-{2-[({7-oxo-7-[(3Z,12Z)-pentadeca-3,12-dien-8-yloxy]heptanoyl}oxy)methyl]-3-({[2-(pyrrolidin-1-yl)ethyl]carbamoyl}oxy)propyl}7-(3Z,12Z)-pentadeca-3,12-dien-8-ylheptanedioate] |  |  |  |  |  |  | 0.65%
